Test results as given in paper PMC5104948, “Regulation and Essentiality of the StAR-related Lipid Transfer (START) Domain-containing Phospholipid Transfer Protein PFA0210c in Malaria Parasites” (The Journal of Biological Chemistry, 2016).

How the values were obtained:
[1] = target: T1, truncated PFA0210c (Trunc.) (Plasmodium falciparum, UniProt Q8I298); assay: […]-phosphatidylcholine transfer from donor to acceptor vesicles; type: biochemical; details: pH 7.4, 37 °C, 30 min; 25 μg/ml protein; labelled compound (trace in phosphatidylcholine vesicles)
T1 construct: gene PF3D7_0104200; residues 144-418 (C-terminal 48 residues removed); N-terminal MBP and C-terminal His6 kept; E. coli BL21(DE3)

[2] = target: T2, PFA0210c (full-length, FL) (Plasmodium falciparum, UniProt Q8I298); assay: as above; type: biochemical; details: pH 7.4, 37 °C, 30 min; 25 μg/ml protein; labelled compound (trace in phosphatidylcholine vesicles)
T2 construct: gene PF3D7_0104200; residues 144-466 (N-terminal region omitted, START domain plus whole C-terminal extension); N-terminal MBP and C-terminal His6 kept; E. coli BL21(DE3); monomeric SEC fractions; strain only from the locus tag and parasite line
T2 sequence (Q8I298 144-466): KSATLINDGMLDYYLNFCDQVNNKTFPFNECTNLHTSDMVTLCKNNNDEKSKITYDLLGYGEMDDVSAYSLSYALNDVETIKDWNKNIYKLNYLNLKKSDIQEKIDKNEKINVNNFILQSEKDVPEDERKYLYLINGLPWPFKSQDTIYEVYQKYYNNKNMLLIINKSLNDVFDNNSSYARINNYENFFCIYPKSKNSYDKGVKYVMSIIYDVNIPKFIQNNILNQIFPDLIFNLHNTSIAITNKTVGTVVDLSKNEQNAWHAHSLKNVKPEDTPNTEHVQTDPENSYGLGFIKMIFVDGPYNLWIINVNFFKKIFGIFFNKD

CCCCCCCCCCCCCCCC(=O)OC[C@H](COP(=O)([O-])OCC[N+](C)(C)C)OC(=O)CCCCCCCCCCCCCCC [L-α-dipalmitoyl-phosphatidylcholine]
phospholipid transfer activity [1]: All the truncated proteins showed higher phospholipid transfer activity than the full-length protein
phospholipid transfer activity [2]: measures the transfer of radiolabeled phosphatidylcholine from a small population of donor vesicles
